Patent US9957261B2 (Hoffmann-La Roche Inc., priority 2014, dated 2018)

Legend:
[1] = molecular target: mouse TAAR1 (Mus musculus (Mouse), UniProt Q923Y8); assay: Radioligand binding assay on mouse TAAR1; settings: mouse TAAR1, membranes of stably transfected HEK-293 cells; first value of mouse/rat pair
Procedure: (§1) Construction of TAAR Expression Plasmids and Stably Transfected Cell Lines
(§2) For the construction of expression plasmids the coding sequences of human, rat and mouse TAAR 1 were amplified from genomic DNA essentially as described by Lindemann et al.. The Expand High Fidelity PCR System (Roche Diagnostics) was used with 1.5 mM Mg^2+ and purified PCR products were cloned into pCR2.1-TOPO cloning vector (Invitrogen) following the instructions of the manufacturer. PCR products were subcloned into the pIRESneo2 vector (BD Clontech, Palo Alto, Calif.), and expression vectors were sequence verified before introduction in cell lines.
(§3) HEK293 cells (ATCC # CRL-1573) were cultured essentially as described by Lindemann et al. (2005). For the generation of stably transfected cell lines HEK293 cells were transfected with the pIRESneo2 expression plasmids containing the TAAR coding sequences (described above) with Lipofectamine 2000 (Invitrogen) according to the instructions of the manufacturer, and 24 hrs post transfection the culture medium was supplemented with 1 mg/ml G418 (Sigma, Buchs, Switzerland). After a culture period of about 10 d clones were isolated, expanded and tested for responsiveness to trace amines (all compounds purchased from Sigma) with the cAMP Biotrak Enzyme immunoassay (EIA) System (Amersham) following the non-acetylation EIA procedure provided by the manufacturer.
Radioligand Binding Assay on Mouse TAAR1
(§4) Membrane Preparation and Radioligand Binding.
(§5) HEK-293 cells stably expressing mouse TAAR1 were maintained at 37° C. and 5% CO2 in DMEM high glucose medium, containing fetal calf serum (10%, heat inactivated for 30 min at 56° C.), penicillin/streptomycin (1%), and 375 μg/ml geneticin (Gibco). Cells were released from culture flasks using trypsin/EDTA, harvested, washed twice with ice-cold PBS (without Ca^2+ and Mg^2+), pelleted at 1′000 rpm for 5 min at 4° C., frozen and stored at −80° C. Frozen pellets were suspended in 20 ml HEPES-NaOH (20 mM, pH 7.4) containing 10 mM EDTA and homogenized with a Polytron (PT 6000, Kinematica) at 14,000 rpm for 20 s. The homogenate was centrifuged at 48,000×g for 30 min at 4° C. Subsequently, the supernatant was removed and discarded, and the pellet resuspended in 20 ml HEPES-NaOH (20 mM, pH 7.4) containing 0.1 mM EDTA using the Polytron (20 s at 14,000 rpm). This procedure was repeated and the final pellet resuspended in HEPES-NaOH containing 0.1 mM EDTA and homogenized using the Polytron. Typically, aliquots of 2 ml membrane portions were stored at −80° C. With each new membrane batch the dissociation constant (Kd) was determined via a saturation curve. […] Nonspecific binding was defined as the amount of ^3[H]—(S)-4-[(ethyl-phenyl-amino)-methyl]-4,5-dihydro-oxazol-2-ylamine bound in the presence of 10 μM unlabeled ligand. All compounds were tested at a broad range of concentrations (10 pM to 10 μM) in duplicates. […] The 96 deep well plates were incubated for 1 hr at 4° C. Incubations were terminated by rapid filtration through Unifilter-96 plates (Packard Instrument Company) and glass filters GF/C (Perkin Elmer) presoaked for 1 hr in polyethylenimine (0.3%) and washed 3 times with 1 ml of cold binding buffer. After addition of 45 μl of Microscint 40 (PerkinElmer) the Unifilter-96 plate was sealed and after 1 hr the radioactivity counted using a TopCount Microplate Scintillation Counter (Packard Instrument Company).

[2] = molecular target: rat TAAR1 (Rattus norvegicus (Rat), UniProt Q923Y9); assay: Radioligand binding assay on rat TAAR1; settings: rat TAAR1, membranes of stably transfected HEK-293 cells; second value of mouse/rat pair
Chain of rat TAAR1 (Q923Y9 whole entry): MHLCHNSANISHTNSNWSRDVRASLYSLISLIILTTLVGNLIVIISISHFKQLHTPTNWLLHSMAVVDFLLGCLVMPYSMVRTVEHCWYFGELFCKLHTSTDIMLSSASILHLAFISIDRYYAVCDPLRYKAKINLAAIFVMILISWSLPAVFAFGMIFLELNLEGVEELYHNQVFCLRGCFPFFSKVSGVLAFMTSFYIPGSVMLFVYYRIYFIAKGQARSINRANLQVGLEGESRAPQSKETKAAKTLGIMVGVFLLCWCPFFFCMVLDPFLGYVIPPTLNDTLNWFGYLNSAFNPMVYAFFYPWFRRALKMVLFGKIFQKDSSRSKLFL
Procedure: as §1, §2, §3
Radioligand Binding Assay on Rat TAAR1
as §4
as §5, with “rat” for “mouse”, “[H]—(S)-4-[(ethyl-phenyl-amino)-methyl]-4,5-dihydro-oxazol-2-ylamine” for “^3[H]—(S)-4-[(ethyl-phenyl-amino)-methyl]-4,5-dihydro-oxazol-2-ylamine”

Chain of mouse TAAR1 (Q923Y8 whole entry): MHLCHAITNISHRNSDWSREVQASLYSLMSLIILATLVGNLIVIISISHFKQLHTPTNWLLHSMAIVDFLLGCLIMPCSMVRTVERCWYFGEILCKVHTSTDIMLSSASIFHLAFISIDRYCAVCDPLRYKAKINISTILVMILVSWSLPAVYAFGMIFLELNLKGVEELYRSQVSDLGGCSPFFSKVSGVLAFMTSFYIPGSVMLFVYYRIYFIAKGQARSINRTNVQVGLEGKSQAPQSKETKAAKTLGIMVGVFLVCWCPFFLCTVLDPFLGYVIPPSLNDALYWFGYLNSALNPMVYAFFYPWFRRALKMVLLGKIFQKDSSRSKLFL

SMILES | Ki [1] [µM] | Ki [2] [µM]
N[C@H]1CCc2cc(NC(=O)Nc3ccc(Cl)cc3)ccc2C1 [Example 74, (S)-1-(6-Amino-5,6,7,8-tetrahydronaphthalen-2-yl)-3-(4-chlorophenyl)urea] | 0.001 | 0.0005
N[C@H]1CCc2cc(NC(=O)Nc3ccc(OC(F)(F)F)cc3)ccc2C1 [Example 65, (S)-1-(6-Amino-5,6,7,8-tetrahydronaphthalen-2-yl)-3-(4-(trifluoromethoxy)phenyl)urea] | 0.0012 | 0.0003
N[C@H]1COc2cc(NC(=O)c3ccc(F)c(F)c3)ccc2C1 [Example 87, (R)—N-(3-Aminochroman-7-yl)-3,4-difluorobenzamide] | 0.0009 | 0.0189
N[C@H]1CCc2cc(NC(=O)NCc3ccc(Cl)cn3)ccc2C1 [Example 62, (S)-1-(6-Amino-5,6,7,8-tetrahydronaphthalen-2-yl)-3-((5-chloropyridin-2-yl)methyl)urea] | 0.0355 | 0.095
CC(=O)Nc1cc(C(=O)Nc2ccc3c(c2)CC[C@H](N)C3)ccn1 [Example 18, (S)-2-Acetamido-N-(6-amino-5,6,7,8-tetrahydronaphthalen-2-yl)isonicotinamide] | 0.71 | 0.232
CCc1n[nH]c(C(=O)Nc2ccc3c(c2)CC[C@H](N)C3)c1C [Example 51, (S)—N-(6-Amino-5,6,7,8-tetrahydronaphthalen-2-yl)-3-ethyl-4-methyl-1H-pyrazole-5-carboxamide] | 0.0062 | 0.0046
N[C@H]1CCc2cc(NC(=O)c3cccnc3F)ccc2C1 [Example 39, (S)—N-(6-Amino-5,6,7,8-tetrahydronaphthalen-2-yl)-2-fluoronicotinamide] | 0.476 | 0.14
N[C@H]1CCc2cc(NC(=O)c3cnc(Cl)c(Cl)c3)ccc2C1 [Example 41, (S)—N-(6-Amino-5,6,7,8-tetrahydronaphthalen-2-yl)-5,6-dichloronicotinamide] | 0.0031 | 0.0031
N[C@H]1CCc2cc(NC(=O)NCc3ccc(Cl)cc3)ccc2C1 [Example 69, (S)-1-(6-Amino-5,6,7,8-tetrahydronaphthalen-2-yl)-3-(4-chlorobenzyl)urea] | 0.0029 | 0.0085
Cc1cc(C(=O)Nc2ccc3c(c2)OC[C@H](N)C3)nc(C(F)(F)F)n1 [Example 12, (R)—N-(3-Aminochroman-7-yl)-6-methyl-2-(trifluoromethyl)pyrimidine-4-carboxamide] | 0.0581 | 0.0436
NC1CCc2cc(C(=O)Nc3cccc(Cl)c3)ccc2C1 (stereo not shown) [Example 59, 6-Amino-N-(3-chlorophenyl)-5,6,7,8-tetrahydronaphthalene-2-carboxamide] | 0.0018 | 0.0109
CCOc1ccc(NC(=O)c2ccc3c(c2)CCC(N)C3)cn1 (stereo not shown) [Example 31, 6-Amino-N-(6-ethoxypyridin-3-yl)-5,6,7,8-tetrahydronaphthalene-2-carboxamide] | 0.0247 | 0.0434
CCCc1cc(C(=O)Nc2ccc3c(c2)CCC(N)C3)nn1CC(F)F (stereo not shown) [Example 3, N-(6-Amino-5,6,7,8-tetrahydronaphthalen-2-yl)-1-(2,2-difluoroethyl)-5-propyl-1H-pyrazole-3-carboxamide] | 0.0132 | 0.0035
N[C@H]1COc2cc(NC(=O)c3ccnc(C(F)(F)F)c3)ccc2C1 [Example 90, (R)—N-(3-Aminochroman-7-yl)-2-(trifluoromethyl)isonicotinamide] | 0.0091 | 0.0096
CCCc1cc(C(=O)Nc2ccc3c(c2)OCC(N)C3)nn1CC(F)F (stereo not shown) [Example 8, N-(3-Aminochroman-7-yl)-1-(2,2-difluoroethyl)-5-propyl-1H-pyrazole-3-carboxamide] | 0.0198 | 0.01
NC1CCc2cc(C(=O)Nc3ccc(C(F)(F)F)cc3)ccc2C1 (stereo not shown) [Example 34, 6-Amino-N-(4-(trifluoromethyl)phenyl)-5,6,7,8-tetrahydronaphthalene-2-carboxamide] | 0.0054 | 0.0039
N[C@H]1CCc2cc(NC(=O)c3ccc(F)c(F)c3)ccc2C1 [Example 42, (S)—N-(6-Amino-5,6,7,8-tetrahydronaphthalen-2-yl)-3,4-difluorobenzamide] | 0.0035 | 0.0019
COc1ccc(C(=O)Nc2ccc3c(c2)CC[C@H](N)C3)cn1 [Example 21, (S)—N-(6-Amino-5,6,7,8-tetrahydronaphthalen-2-yl)-6-methoxynicotinamide] | 0.0344 | 0.0513
Cc1cc(C(=O)Nc2ccc3c(c2)CC[C@H](N)C3)ccn1 [Example 17, (S)—N-(6-Amino-5,6,7,8-tetrahydronaphthalen-2-yl)-2-methylisonicotinamide] | 0.111 | 0.147
NC1CCc2cc(C(=O)Nc3cnc(C(F)(F)F)cn3)ccc2C1 (stereo not shown) [Example 33, 6-Amino-N-(5-(trifluoromethyl)pyrazin-2-yl)-5,6,7,8-tetrahydronaphthalene-2-carboxamide] | 0.021 | 0.0865
CCOc1[nH]nc(C(=O)Nc2ccc3c(c2)OC[C@H](N)C3)c1C [Example 81, (R)—N-(3-Aminochroman-7-yl)-5-ethoxy-4-methyl-1H-pyrazole-3-carboxamide] | 0.0082 | 0.0277
N#Cc1ccc(C(=O)Nc2ccc3c(c2)OC[C@H](N)C3)cc1F [Example 86, (R)—N-(3-Aminochroman-7-yl)-4-cyano-3-fluorobenzamide] | 0.0026 | 0.0044
N[C@H]1COc2cc(NC(=O)c3cc(Cl)nc(Cl)c3)ccc2C1 [Example 91, (R)—N-(3-Aminochroman-7-yl)-2,6-dichloroisonicotinamide] | 0.0035 | 0.0077
N[C@H]1CCc2cc(Nc3cccc(Cl)c3)ccc2C1 [Example 68, (S)—N6-(3-Chlorophenyl)-1,2,3,4-tetrahydronaphthalene-2,6-diamine] | 0.019 | 0.0099
N[C@H]1CCc2cc(C(=O)Nc3cccc(OC(F)(F)F)c3)ccc2C1 [Example 79, (S)-6-Amino-N-(3-(trifluoromethoxy)phenyl)-5,6,7,8-tetrahydronaphthalene-2-carboxamide] | 0.0008 | 0.0009
N[C@H]1CCc2cc(Nc3ccc(F)cc3)ccc2C1 [Example 66, (S)—N6-(4-Fluorophenyl)-1,2,3,4-tetrahydronaphthalene-2,6-diamine] | 0.171 | 0.024
